The text below walks through data of PubChem BioAssay (NCI).

SMILES strings stand for the structures. Values joined by “and” are separate entries in the source; they are usually repeats but may differ in a detail not shown here. Equal entries are not always repeated.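 Protocol summary: plate cells (96-well), add compound at 5 concentrations, incubate 48 h, interpolate endpoints linearly. The concentration for 50% growth inhibition is given as GI50. TGI is the concentration that stops growth completely.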

Among the test systems are CCRF-CEM leukemia; DU-145 prostate; HCT-15 colon; LOX IMVI melanoma; MCF7 breast; NCI/ADR-RES ovarian; SF-295 CNS; SK-MEL-28 melanoma; SK-OV-3 ovarian; SW-620 colon.
Holding throughout (experiment): NCI tumour cell line growth inhibition, 48 h

Turning to `Nc1n[nH]c2cccc(C#Cc3cccc(C(=O)Nc4ccc(CN5CCOCC5)c(C(F)(F)F)c4)c3)c12`, the GI50 in the experiment on CCRF-CEM leukemia was 2.26 µM; in the experiment on DU-145 prostate, 3.93 µM; in the experiment with HCT-15 colon it was 2.56 µM; in the experiment with LOX IMVI melanoma it was 1.67 µM; in the experiment on MCF7 breast, 2.41 µM; in the experiment on NCI/ADR-RES ovarian, 3.07 µM. For the same compound, the GI50 is 2.03 µM with SF-295 CNS, 1.88 µM in the experiment with SK-MEL-28 melanoma, 4 µM in the experiment with SK-OV-3 ovarian and 2.89 µM with SW-620 colon. For the same compound, the TGI in the experiment on CCRF-CEM leukemia is 11.5 µM; with DU-145 prostate, 13.3 µM; with HCT-15 colon, 9.32 µM; in the experiment with LOX IMVI melanoma it was 4.02 µM; in the experiment on MCF7 breast, 10.3 µM; with NCI/ADR-RES ovarian it was > 100 µM. The TGI in the experiment with SF-295 CNS came out at 6.1 µM; in the experiment with SK-MEL-28 melanoma it was 7.08 µM; in the experiment on SK-OV-3 ovarian, 17.5 µM; with SW-620 colon it was 12.7 µM.
In the case of `COc1cccc(C2SC(N)=Nc3c2c(C)nn3C(=O)c2ccccc2O)c1` (stereo not given), the TGI with CCRF-CEM leukemia, in the experiment with DU-145 prostate, in the experiment on HCT-15 colon, in the experiment on LOX IMVI melanoma, in the experiment with MCF7 breast and in the experiment with NCI/ADR-RES ovarian was > 10 µM in each case. The TGI with SF-295 CNS, with SK-MEL-28 melanoma, with SK-OV-3 ovarian and in the experiment with SW-620 colon was > 10 µM in each case.
`CCC(=C/[C@H](C)C/C=C/C(C)=C/[C@@H](C)C(=O)[C@@H](C)[C@H](O)[C@@H](C)CC)/C=C/[C@H]1OC(=O)C=C[C@@H]1C`: the GI50 with CCRF-CEM leukemia, in the experiment on DU-145 prostate, in the experiment on HCT-15 colon, in the experiment with LOX IMVI melanoma, in the experiment with MCF7 breast and in the experiment with NCI/ADR-RES ovarian was < 0.01 µM in each case. Further, the GI50 in the experiment with SF-295 CNS was < 0.01 µM; with SK-MEL-28 melanoma, < 0.01 µM; in the experiment on SK-OV-3 ovarian it was < 0.035 µM; in the experiment with SW-620 colon, < 0.01 µM. In addition, the TGI stood at 2.66 µM in the experiment with CCRF-CEM leukemia; 4.56 µM in the experiment on DU-145 prostate; 1.28 µM in the experiment with HCT-15 colon; 1.23 µM in the experiment on LOX IMVI melanoma; 1.26 µM with MCF7 breast; 4.31 µM with NCI/ADR-RES ovarian. The TGI in the experiment on SF-295 CNS came to 1.43 µM; in the experiment on SK-MEL-28 melanoma, 1.26 µM; in the experiment on SK-OV-3 ovarian, 13.4 µM; with SW-620 colon, 1.32 µM.
In the case of `COc1ccc2nc3cc(Cl)ccc3c(NCCNCC(C)O)c2c1` (stereo not given), the GI50 in the experiment with CCRF-CEM leukemia is 2.46 µM; in the experiment with DU-145 prostate, 2.12 µM; in the experiment with HCT-15 colon, 1.21 µM; in the experiment on LOX IMVI melanoma it was 1.15 µM; in the experiment on MCF7 breast, 1.28 µM; in the experiment with NCI/ADR-RES ovarian, 3.08 µM. Further, the GI50 in the experiment on SF-295 CNS is 1.68 µM; in the experiment on SK-MEL-28 melanoma, 2.06 µM; in the experiment with SK-OV-3 ovarian, 2.58 µM; in the experiment with SW-620 colon it was 0.818 µM. In addition, the TGI stood at 8.66 µM in the experiment with CCRF-CEM leukemia; 8.57 µM in the experiment with DU-145 prostate; 4.36 µM in the experiment with HCT-15 colon; 2.66 µM in the experiment with LOX IMVI melanoma; 5.51 µM in the experiment on MCF7 breast; 14 µM in the experiment with NCI/ADR-RES ovarian. In addition, the TGI stood at 6.71 µM with SF-295 CNS, 4.02 µM in the experiment with SK-MEL-28 melanoma, 9.75 µM in the experiment on SK-OV-3 ovarian and 10.3 µM in the experiment with SW-620 colon.
With `CC1(COc2ccc3c(c2)ncn3-c2ccc3cccc(N4CCC(N)CC4)c3n2)COC1`, the GI50 with CCRF-CEM leukemia was 2.02 µM and 1.39 µM; with DU-145 prostate, 2.19 µM and 1.5 µM; in the experiment on HCT-15 colon it was 3.37 µM and 2.92 µM; with LOX IMVI melanoma it was 1.4 µM and 1.16 µM; in the experiment with MCF7 breast it was 2.17 µM and 2.2 µM; with NCI/ADR-RES ovarian, 7.04 µM and > 10 µM. Also, the GI50 with SF-295 CNS was 5.75 µM and 2.88 µM; in the experiment on SK-MEL-28 melanoma it was 3.5 µM and 3.37 µM; in the experiment on SK-OV-3 ovarian, 15.5 µM and > 10 µM; with SW-620 colon, 3.09 µM and 2.52 µM. Also, the TGI in the experiment with CCRF-CEM leukemia was 6.44 µM and 5.86 µM; in the experiment with DU-145 prostate, 13 µM and > 10 µM; with HCT-15 colon, 12.3 µM and > 10 µM; in the experiment with LOX IMVI melanoma, 3.97 µM and > 10 µM; in the experiment on MCF7 breast, 6.54 µM and 7.83 µM; in the experiment on NCI/ADR-RES ovarian, 20.6 µM and > 10 µM. Besides, the TGI with SF-295 CNS was 19.4 µM and > 10 µM; in the experiment with SK-MEL-28 melanoma, 9.34 µM and 8.36 µM; with SK-OV-3 ovarian, 29.2 µM and > 10 µM; in the experiment on SW-620 colon it was 11 µM and > 10 µM.
For the compound `CCOC(=O)C1=C(C)N(c2ccc(F)cc2F)[C@]2(C#N)C(O)=C(Cl)C(Cl)=C(O)[C@]12C#N`, the GI50 was 28.8 µM with CCRF-CEM leukemia; > 100 µM in the experiment on DU-145 prostate; > 100 µM in the experiment on HCT-15 colon; > 100 µM in the experiment on LOX IMVI melanoma; > 100 µM with MCF7 breast; 5.61 µM with NCI/ADR-RES ovarian. The GI50 with SF-295 CNS, in the experiment with SK-MEL-28 melanoma, with SK-OV-3 ovarian and in the experiment on SW-620 colon was > 100 µM each time. Further, the TGI in the experiment on CCRF-CEM leukemia, in the experiment on DU-145 prostate, with HCT-15 colon, in the experiment with LOX IMVI melanoma, with MCF7 breast and in the experiment with NCI/ADR-RES ovarian was > 100 µM each time. Also, the TGI with SF-295 CNS, in the experiment with SK-MEL-28 melanoma, in the experiment on SK-OV-3 ovarian and in the experiment with SW-620 colon was > 100 µM each time.
